Results as given in patent US20250082620A1, “NOVEL CINNAMAMIDE DERIVATIVES AND USE THEREOF” (KOREA RESEARCH INSTITUTE OF BIOSCIENCE AND BIOTECHNOLOGY, priority 2022, published 2025).
One block for each molecule: values may come before it.

Legend:
[1] = system: human-derived prostate cancer (DU-145); test: Nude mouse subcutaneous transplant model of human-derived prostate cancer (DU-145); type: in vivo, nude mice
Protocol: It was attempted to evaluate the anticancer efficacy of the compound CG165 of the present disclosure by oral administration using nude mouse subcutaneous transplant models of human-derived prostate cancer (DU-145).
Specifically. Athymic-NCr NCr-nu specific pathogen-free (SPF) 5-week-old nude mice supplied by KOATECH (Pyeongtaek-si, Gyeonggi-do) were used as animals. The cancer cell concentration was adjusted to 3×10^7 cells/mL, and 0.3 mL of cell culture per mouse was injected subcutaneously into the axillary area between the right shoulder and chest wall. Subsequently, CG165 was prepared at the corresponding concentrations by adding DMAC 10%+Tween80 10%+20% HPBCD 80% step by step, and was administered orally at 0.2 mL per 20 g of mouse, which was repeated a total of 23 times for 30 days. At 30 days after starting drug administration, the DU-145 tumor was excised and its weight was measured.
Next, it was attempted to evaluate the anticancer efficacy of the compound CG126 of the present disclosure by intraperitoneal administration using nude mouse subcutaneous transplant models of human-derived prostate cancer (DU-145) in the same manner as above.

STAT3 activity (p-STAT3) [2] = biological target: T1, STAT3 activity (p-STAT3) (Homo sapiens, UniProt P40763); test: STAT3 phosphorylation inhibitory effect in cancer cell line by Western blot (Table 2); type: cell-based; set-up: endogenous in cells; host or cells: unnamed 'rectal cancer cell' line; settings: rectal cancer cell line, read-out: Concentration at which STAT3 activity (p-STAT3) is inhibited by 50% (μM; IC50)
Protocol: (§1) Prostate cancer cell line DU-145, breast cancer cell MDA-MB 468, lung cancer cell HCC827, natural killer cells (NKL), or bone marrow-derived macrophages (BMDM) (4×10^5 cells), which are immune cells, were plated in a 6-well plate. After 24 hours, the cells were each treated with 0.1% DMSO, HCA, EA, and the compounds prepared in Synthesis Examples 1 to 8 according to concentration and time, washed with PBS, and recovered using RIPA buffer. […] of protein quantified using the Bio-Rad protein assay kit (Bio-Rad, Hercules, California, USA) was subjected to 8% SDS-PAGE electrophoresis and transferred to a PVDF membrane (EMD Millipore, Billerica, MA, USA). After blocking the membrane with TBST containing 5% skim milk, the experiment was performed using primary and secondary antibodies. The primary antibodies used were p-STAT3 (Y705) (Cell Signaling), STAT3 (Cell Signaling), Cyclin D1 (Santa Cruz), Cyclin A (Santa Cruz), Mcl-1 (Santa Cruz), Survivin (Cell Signaling), Bcl-XL (Santa Cruz), and PARP (Cell Signaling) GAPDH (Santa Cruz), and the secondary antibodies used were HRP-conjugated goat anti-rabbit and anti-mouse IgG (Jackson ImmunoResearch Laboratories, West Grove, PA, USA). The antibodies used were each washed three times with TBST, and bands were detected using Luminata Forte Western HRP substrate (EMD Millipore) by LAS 4000 mini (GE Healthcare Life Sciences). Subsequently, correction using GAPDH was performed using the MultiGauge program (Fuji Photo Film, Tokyo, Japan).
The STAT3 phosphorylation inhibitory effect of the cinnamamide derivatives of Chemical Formula 1 prepared in Synthesis Examples 1 to 8 in cancer cell lines was confirmed by Western blot.
Specifically, the STAT3 phosphorylation inhibitory effect in rectal cancer cell was confirmed line as an example of representative carcinoma.

[3] = biological target: T2, STAT3 phosphorylation (p-STAT3) (Homo sapiens, UniProt P40763); test: STAT3 phosphorylation inhibition in natural killer cells (NKL) by Western blot; type: cell-based; settings: 2, 5, 10 μM
T2 construct: endogenous in cells; host or cells: NKL natural killer cells
Protocol: as §1, with “The primary antibodies used were p-STAT3 (Y705) (Cell Signaling), STAT3 (Cell Signaling), Cyclin D1 (Santa Cruz), Cyclin A (Santa Cruz), Mcl-1 (Santa Cruz), Survivin (Cell Signaling), Bcl-XL (Santa Cruz), and PARP (Cell Signaling) GAPDH (Santa Cruz), and the secondary antibodies used were HRP-conjugated goat anti-rabbit and anti-mouse IgG (Jackson ImmunoResearch Laboratories, West Grove, PA, USA).” left out, “Subsequently, correction using GAPDH was performed using the MultiGauge program (Fuji Photo Film, Tokyo, Japan).” left out
Specifically, NKL (4×10^5 cells) were plated in 6-well plate and each treated with 2 μM, 5 μM, and 10 μM of CG155 or CG165, and then the degree of STAT3 phosphorylation was measured by Western blot using p-STAT3 antibody.

[4] = biological target: T3, STAT3 phosphorylation (p-STAT3) (Mus musculus, UniProt P42227); test: STAT3 phosphorylation inhibition in IL-10-treated bone marrow-derived macrophages (BMDM) by Western blot; type: cell-based, C57BL/6 mice; settings: for inhibition of phosphorylation of STAT3, dependence on concentration: 1 hour pre-treatment, then IL-10 for 15 minutes
T3 construct: the bone marrow-derived macrophages isolated from mouse bone marrow; endogenous in cells; host or cells: primary bone marrow-derived macrophages from C57BL/6 mice
Protocol: as §1, with “Japan). […]” for “Japan).”
Subsequently, in order to confirm the function of CG155 and CG165 in inhibiting STAT3 activation in the bone marrow-derived macrophages isolated from mouse bone marrow, the bone marrow-derived macrophages were each pre-treated with DMSO, CG155 (5 μM, 10 μM), and CG165 (2 μM, 5 μM) for 1 hour. After removing the culture medium, the bone marrow-derived macrophages were treated with interleukin-10 (IL-10), a type of cytokine that can activate STAT3, for 15 minutes, and the function of CG155 and CG165 on inhibiting STAT3 activation was measured by Western blot using p-STAT3 antibody.

[5] = system: MCF10A, human breast epithelial cells; test: Cell viability (WST-1) in normal cells MCF10A; type: cell-based; settings: 10 μM, 48 hours
[6] = system: prostate cancer cell line DU-145; test: Cell proliferation assay (WST-1) in prostate cancer cell line DU-145; type: cell-based, human; settings: 24 or 48 hours
Protocol: In Example 1, it was confirmed that STAT3 activity (p-STAT3) was inhibited in cancer cells when treated with the cinnamamide derivatives of Chemical Formula 1 prepared in Synthesis Examples 1 to 8. In order to confirm the effect of inhibiting STAT3 activity on inhibition of cancer cell growth, cell proliferation assay was performed using the prostate cancer cell line, a representative carcinoma.
Specifically, the prostate cancer cell line DU-145 (0.8×10^4 cells) was plated in a 96-well plate. After 24 hours, DMSO (control) and CG-165 were treated for 24 or 48 hours according to concentration, and then treated with 10 ul of WST-1 reagent (Dojindo Laboratories, Kumamoto, Japan). After treatment for about 1 hour, cell viability was calculated using the absorbance measured at 450 nm with a microplate reader (Multiskan GO system, Thermo Fisher Scientific, Rockford, IL, USA).

[7] = system: human foreskin fibroblasts HFF; test: Cell viability (WST-1) in normal cells HFF; type: cell-based; settings: 10 μM, 48 hours
STAT3 activity (p-STAT3) [8] = biological target: T1, STAT3 activity (p-STAT3); test: STAT3 phosphorylation inhibition in lung cancer cell line HCC827 by Western blot; type: cell-based; set-up: endogenous in cells
Protocol: as §1, with “Subsequently, correction using GAPDH was performed using the MultiGauge program (Fuji Photo Film, Tokyo, Japan).” left out

[9] = system: STAT3 target proteins (cyclin A, Mcl-1, survivin), caspase 3, PARP; test: Expression of STAT3 target proteins and apoptotic effect in cancer cell lines by Western blot; type: cell-based
Protocol: as §1
In Example 1, it was confirmed that STAT3 activity (p-STAT3) was inhibited in cancer cells when treated with the compound CG165 of the present disclosure. The effect of inhibiting the expression of STAT3 target proteins and the apoptotic effect due to the inhibition of STAT3 activity were confirmed using Western blot.

[10] = system: breast cancer cell line MDA-MB-468; test: Cell proliferation assay (WST-1) in breast cancer cell line MDA-MB-468; type: cell-based; settings: 24 or 48 hours
Protocol: In Example 1, it was confirmed that STAT3 activity (p-STAT3) was inhibited by more than 50% in cancer cells when treated with the compound CG165 of the present disclosure. In order to confirm the effect of inhibiting STAT3 activity on inhibition of cancer cell growth, cell proliferation assay was performed using the breast cell line, a representative carcinoma.
Specifically, the breast cancer cell line MDA-MB-468 was treated with CG-165 according to concentrations for 24 or 48 hours, and then the degree of cell viability was measured using the WST-1 assay (Dojindo Laboratories, Kumamoto, Japan).

STAT3 activity (p-STAT3) [11] = biological target: T1, STAT3 activity (p-STAT3); test: STAT3 phosphorylation inhibition in prostate cancer cell line DU-145 by Western blot; type: cell-based; set-up: endogenous in cells; host or cells: DU-145, MDA-MB-468, HCC827
Protocol: as §1
Next, the STAT3 phosphorylation inhibitory effect of the compound CG165 of the present disclosure in cancer cell lines was confirmed by Western blot.

STAT3 activity (p-STAT3) [12] = biological target: T1, STAT3 activity (p-STAT3); test: STAT3 phosphorylation inhibition in breast cancer cell line MDA-MB-468 by Western blot; type: cell-based; set-up: endogenous in cells
Protocol: as §1, with “Subsequently, correction using GAPDH was performed using the MultiGauge program (Fuji Photo Film, Tokyo, Japan).” left out

[13] = Single oral dose toxicity in mice; type: in vivo; settings: male mice; 100 mg/kg, 200 mg/kg, and 300 mg/kg
Protocol: In order to obtain information on the acute toxicity of the compound CG165 of the present disclosure whose anticancer effect has been verified in animal models, the test substance was administered orally once at 100 mg/kg, 200 mg/kg, and 300 mg/kg to male mice to determine mortality, general symptoms, weight change, and post-mortem over 7 days.
Specifically, 20 Athymic-NCr NCr-nu specific pathogen-free (SPF) 5-week-old nude mice supplied by KOATECH (Pyeongtaek-si, Gyeonggi-do) were used as animals. Subsequently, CG165 was prepared as administration solution at different concentrations by adding DMAC 10%+Tween80 10%+20% HPBCD 80% step by step, and was administered orally.
General symptoms and dead animals were observed every hour from 1 to 6 hours after the final administration on the day of administration, and once daily from the day after administration until the 7th day for observation of changes in general symptoms, toxic symptoms, and the presence of dead animals.
In order to observe changes in body weight, the body weight of all animals used in the test was measured before administration and on days 0, 1, 2, 4, and 7 after administration.
On the 7th day after administration, all animals were anesthetized using CO2 gas, laparotomized, and killed by exsanguination by cutting the abdominal artery and vein, and all internal organs were visually observed.

T3 sequence (P42227 whole entry): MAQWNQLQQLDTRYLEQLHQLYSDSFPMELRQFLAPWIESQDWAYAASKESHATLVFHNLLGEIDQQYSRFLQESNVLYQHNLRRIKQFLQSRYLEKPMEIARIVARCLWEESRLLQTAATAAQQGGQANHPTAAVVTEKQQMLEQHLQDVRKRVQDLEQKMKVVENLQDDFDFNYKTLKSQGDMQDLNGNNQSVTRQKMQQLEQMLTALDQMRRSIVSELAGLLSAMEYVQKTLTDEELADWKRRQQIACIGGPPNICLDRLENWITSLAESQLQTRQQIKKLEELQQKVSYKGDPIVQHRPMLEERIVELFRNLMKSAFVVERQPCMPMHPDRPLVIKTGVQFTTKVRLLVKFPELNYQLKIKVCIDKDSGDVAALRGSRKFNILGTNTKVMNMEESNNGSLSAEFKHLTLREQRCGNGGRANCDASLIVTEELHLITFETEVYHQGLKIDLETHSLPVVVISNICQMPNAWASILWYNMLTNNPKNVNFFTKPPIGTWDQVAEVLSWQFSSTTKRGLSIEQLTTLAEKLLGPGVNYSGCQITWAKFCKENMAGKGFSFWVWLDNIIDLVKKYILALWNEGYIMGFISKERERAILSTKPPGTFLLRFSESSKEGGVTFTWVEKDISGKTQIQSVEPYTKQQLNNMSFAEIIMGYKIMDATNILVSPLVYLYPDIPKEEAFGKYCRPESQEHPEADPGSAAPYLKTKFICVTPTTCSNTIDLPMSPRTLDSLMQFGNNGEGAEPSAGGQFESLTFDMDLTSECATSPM
T1 sequence (P40763 whole entry): as the sequence (P42227 whole entry) above, with D760E counted along it
T2 sequence (P40763 whole entry): as the sequence (P42227 whole entry) above, with D760E counted along it

IC50 (STAT3 activity (p-STAT3) [2]): 3.7 µM
SMILES: C=C(C)C(=O)NC(=O)/C=C/c1ccccc1OC [CG126]
decrease in tumor weight compared to the vehicle ([1]; 30 mg/kg intraperitoneal, day 25, p<0.06): 54.2%

IC50 (STAT3 activity (p-STAT3) [2]): 8.1 µM
SMILES: C=C(C)C(=O)NC(=O)/C=C/c1ccccc1C [CG127]

IC50 (STAT3 activity (p-STAT3) [2]): 6.2 µM
SMILES: C=C(C)C(=O)NC(=O)/C=C/c1ccccc1O [CG133]

IC50 (STAT3 activity (p-STAT3) [2]): 5 µM
inhibition of phosphorylation of STAT3, dependence on concentration [4]: concentration-dependent manner
SMILES: C=C(C)C(=O)NC(=O)/C=C/c1ccccc1OCc1ccncc1 [CG155]
inhibition of phosphorylation of STAT3, dependence on concentration [3]: concentration-dependent manner

IC50 (STAT3 activity (p-STAT3) [2]): 3.5 µM
SMILES: C#CCOc1ccccc1/C=C/C(=O)NC(=O)C(=C)C [CG164]

SMILES: C#CCOc1ccccc1/C=C/C(=O)N(C)C(=O)C(=C)C [CG165]
effect on the growth of normal cells (cell viability, WST-1) [5]: no significant effect
inhibition of growth of cancer cells (cell viability, WST-1) [6]: inhibited the growth of cancer cells in a concentration-dependent manner
effect on the growth of normal cells (cell viability, WST-1) [7]: no significant effect
change in body weight compared to the vehicle ([1]; 30 mg/kg oral): no decrease in body weight was observed
decrease in tumor weight compared to the vehicle ([1]; 30 mg/kg oral, day 30, p<0.05): 43.3%
change in body weight compared to the vehicle ([1]; 60 mg/kg oral): no decrease in body weight was observed
decrease in tumor weight compared to the vehicle ([1]; 60 mg/kg oral, day 30, p<0.05): 64.3%
tumor growth inhibition (tumor size) compared to the vehicle ([1]; 60 mg/kg oral, day 30, p<0.05): 63.3%
tumor growth inhibition (tumor size) compared to the vehicle ([1]; P.O, 30 mg/kg, day 30, p<0.05): 45.6%
inhibition of STAT3 activity (p-STAT3), dependence on concentration (STAT3 activity (p-STAT3) [8]): concentration-dependent manner
inhibition at 5 µM (STAT3 activity (p-STAT3) [8]; 5 μM): > 50%
caspase 3 activation [9]: activated
decomposition of PARP protein (cell death biomarker) [9]: promoted
expression of cyclin A, Mcl-1, and survivin (target proteins of STAT3) [9]: significantly inhibited
inhibition of growth of breast cancer cells (cell viability, WST-1) [10]: inhibited the growth of breast cancer cells in a concentration-dependent manner
inhibition of STAT3 activity (p-STAT3), dependence on concentration (STAT3 activity (p-STAT3) [11]): concentration-dependent manner
inhibition of STAT3 activity (p-STAT3), dependence on time (STAT3 activity (p-STAT3) [11]): time-dependent manner
inhibition at 2 µM (STAT3 activity (p-STAT3) [11]; 2 μM): > 50%
IC50 (STAT3 activity (p-STAT3) [2]): 1.8 µM
inhibition of phosphorylation of STAT3, dependence on concentration [3]: concentration-dependent manner
inhibition at 5 µM ([4]; 5 μM, IL-10 stimulated, read-out: inhibition of STAT3 activation): > 90%
inhibition of phosphorylation of STAT3, dependence on concentration [4]: concentration-dependent manner
inhibition of STAT3 activity (p-STAT3), dependence on concentration (STAT3 activity (p-STAT3) [12]): concentration-dependent manner
inhibition at 5 µM (STAT3 activity (p-STAT3) [12]; 5 μM): > 50%
toxicological changes upon single oral administration [13]: did not cause toxicological changes

IC50 (STAT3 activity (p-STAT3) [2]): 2 µM
SMILES: C=C(C)C(=O)NC(=O)/C=C/c1ccccc1Cl [CG168]

IC50 (STAT3 activity (p-STAT3) [2]): 3.5 µM
SMILES: C=C(C)C(=O)NC(=O)/C=C/c1ccccc1OCc1ccccc1 [CG187]
